Read-outs that look alike come from different tables or passages of the source.
Tests used:
[1] = test system: platelet function in whole blood; assay: Closure time under flow conditions, conventional Col/Epi PFA-100 test cartridge, citrated whole blood treated in vitro; assay type: cell-based, human; settings: cut-off 158 seconds, MRS 2395 100 μmol/L; for Number of samples with closure times above cut-off (n = 11): ASA 30 μmol/L, citrated whole blood of 11 healthy donors
[2] = test system: platelet aggregation in platelet rich plasma; assay: ADP-induced light transmission aggregometry (according to Born), in vitro treated samples, 2 μM ADP; assay type: cell-based, human; settings: MRS 2395 100 μmol/L in citrated blood, 5 min room temperature, PRP, 11 healthy donors
Method: (§1) Venous blood was taken from 11 healthy donors and anticoagulated with sodium citrate (3.2% buffered Na citrate).
(§2) Aliquots of the citrated whole blood sample were treated in vitro with the P2Y(12) antagonist MRS 2395 (Sigma-Aldrich Chemie GmbH, Steinheim, Germany). For this purpose an ethanolic MRS 2395 stock solution (15 mg/mL) was mixed with the whole blood samples so that an end concentration of 100 μmol/L was obtained.
(§3) After addition of the reagents the blood samples were incubated at room temperature for 5 minutes.
In order to check whether the samples treated with MRS 2395 actually show a reduced platelet aggregation, platelet rich (PRP) and platelet poor (PPP) plasma was prepared from aliquots of the untreated and MRS 2395-treated whole blood samples described under Example 2a), and the samples were then treated with 2 μM ADP. The PPP samples were used as blank controls. The photometric measurement of the aggregation reaction was carried out in the automated coagulation apparatus BCT® (Dade Behring Marburg GmbH, Marburg, Germany) under continuous stirring (600 rpm). The platelet aggregation of the samples treated with MRS 2395 was reduced by a mean of 27% compared with the platelet aggregation of the untreated samples.

[3] = test system: platelet function in whole blood; assay: Closure time under flow conditions, ADP/PGE1/calcium test cartridge in PFA-100, citrated whole blood treated in vitro; assay type: cell-based, human; settings: cut-off 81 seconds, MRS 2395 100 μmol/L; for Number of samples with closure times above cut-off (n = 11): ASA 30 μmol/L, citrated whole blood of 11 healthy donors
Method: For the preparation of a partition member for a test cartridge according to the invention a polyether sulfone filter membrane (Supor® membrane, Pall GmbH, Dreieich, Germany) was cut into strips. 1 μL of a solution comprising 7 μg/μL ADP (adenosine-5′-diphosphate potassium salt.2H2O, Sigma-Aldrich Chemie GmbH, Steinheim, Germany) and 5 ng/μL PGE1 (prostaglandin E1, Sigma-Aldrich Chemie GmbH, Steinheim, Germany) and 367.5 μg/μL CaCl2.2H2O (equivalent to 100 μg/μL Ca^2+ ions) were pipetted punctiform onto the membrane and the membrane was dried. Next a circular opening (aperture) with a diameter of 100 μm was punched out of the middle of the region of the membrane treated with the reagents. The membrane thus prepared was used as partition member in the measurement chamber of a PFA-100® test cartridge (Dade Behring Marburg GmbH, Marburg, Germany).
as §1, §2
Further aliquots of the citrated whole blood samples were treated in vitro with the COX-1 inhibitor acetylsalicylic acid (abbr.: ASA; Sigma-Aldrich Chemie GmbH, Steinheim, Germany). […]
To determine the closure time as a measure of platelet function the whole blood samples described under Example 2a) were investigated with the aid of the ADP/PGE1/calcium test cartridge according to the invention described in Example 1 in a PFA-100® apparatus (Platelet Function Analyzer-100, Dade Behring Marburg GmbH, Marburg, Germany). […] The time required up to the closure of the aperture by formation of a blood clot was determined as closure time. Every sample investigated was determined in duplicate and the mean value of a duplicate determination was used as the measurement value.
Venous blood was taken from healthy donors and anticoagulated with sodium citrate (3.2% buffered Na citrate). […] Samples from 186 donors were determined in duplicate with a Col/Epi PFA-100® test cartridge [see Example 2c)]. Samples from 159 donors were determined in duplicate with an ADP/PGE1/calcium test cartridge according to the invention [see Examples 1 and 2c)].
The reference ranges (normal range) for the Col/Epi closure time and the ADP/PGE1 closure time were established in that the measurement value ranges in which 90% of the measurement values found for the healthy subjects lay were determined (90% central interval of the normal distribution of all measurements). […]

[4] = test system: platelet function in whole blood; assay: Closure time under flow conditions, ADP/PGE1 test cartridge without calcium in PFA-100, PPACK whole blood treated in vitro; assay type: cell-based, human; settings: cut-off 90 seconds, MRS 2395 150 μmol/L, ASA 30 μmol/L, MRS 2179 75 μmol/L; for Number of samples with closure times above cut-off (n = 10): ADP/PGE1 cartridge without calcium, PPACK whole blood of 10 healthy donors; for closure time relative to cut-off (FIG. 3, mean values): ADP/PGE1 cartridge, PPACK blood, 10 donors
Method: Venous blood was taken from 10 healthy donors and anticoagulated with 75 μM PPACK.
(§4) Aliquots of the whole blood samples were treated in vitro with the P2Y(12) antagonist MRS 2395 (Sigma-Aldrich Chemie GmbH, Steinheim, Germany). For this purpose an ethanolic MRS 2395 stock solution (15 mg/mL) was mixed with the whole blood samples so that an end concentration of 150 μmol/L was obtained.
Further aliquots of the whole blood samples were treated in vitro with the COX-1 inhibitor acetylsalicylic acid (abbr. ASA; Sigma-Aldrich Chemie GmbH, Steinheim, Germany). For this purpose an aqueous ASA stock solution (1 mg/mL) was mixed with the whole blood samples so that an end concentration of 30 μmol/L was obtained.
as §4, with “Further aliquots” for “Aliquots”, “P2Y(1)” for “P2Y(12)”, “2179” for “2395”, “aqueous” for “ethanolic”, “(1 mg/ml)” for “(15 mg/mL)”, “75” for “150”
as §3
For the determination of the closure time as a measure of the platelet function the whole blood samples described under Example 4a) were investigated with the aid of a ADP/PGE1 test cartridge according to the invention in a PFA-100® apparatus (Platelet Function Analyzer-100, Dade Behring Marburg GmbH, Marburg, Germany). The ADP/PGE1 test cartridge according to the invention used was prepared essentially as described in Example 1 but without the partition member having been treated with CaCl2.2H2O. The test cartridge thus comprised 7 μg ADP and 5 ng PGE1 but no calcium ions.
700 μL of a blood sample was added to the reservoir of the temperature equilibrated test cartridge (+37° C.) and incubated at +37° C. in the apparatus for 3 minutes. Next a partial vacuum of −40 mbar was applied by the apparatus when the blood was sucked through a capillary (diameter 200 μm) from the reservoir and finally through an opening (aperture) of the partition member in the measurement chamber. The time that was required up to the closure of the aperture by formation of a blood clot was determined as closure time. Every sample investigated was determined in duplicate and the mean value of a duplicate determination was used as the measurement value.
Owing to the use of PPACK as anticoagulant the cut-off determined with citrated whole blood in the above-described examples cannot be used. Therefore, the reference range for the ADP/PGE1 closure time from the 10 samples of the healthy donors treated with PPACK was calculated by the determination of the 90% central interval of the normal distribution of the mean values of the duplicate determinations. This gave the following reference ranges for the closure times:
The upper limit of the 90% central interval was defined as cut-off, i.e. as threshold value for a platelet dysfunction.

[5] = test system: platelet aggregation; settings: Method 3 aggregometry 2 μM ADP; 13 patients on 75 mg clopidogrel daily
[6] = test system: platelet function in whole blood; settings: Method 1 ADP/PGE1/calcium cartridge; 13 patients on 75 mg clopidogrel daily
[7] = test system: platelet function in whole blood; settings: Method 2 ADP cartridge without PGE1; 13 patients on 75 mg clopidogrel daily
Text: The samples were investigated with the aid of different methods to determine platelet function. • 1. according to the invention under flow conditions and use of an ADP/PGE1/calcium PFA-100® test cartridge (see Examples 1 and 2c), cut-off: >81 seconds; • 2. under flow conditions and use of a PFA-100® test cartridge that differed from the test cartridge according to the invention in accordance with Example 1 in that it comprised no PGE1, cut-off: >78 seconds; • 3. with ADP-induced light transmission aggregometry (according to Born) with addition of 2 μM ADP (see Example 2b), cut-off: <40% light transmission at end of test; • 4. with ADP-induced light transmission aggregometry (according to Born) with the addition of 5 μM ADP (see example 2b), cut-off: <40% light transmission at end of test. This method is recommended by Sanofi-Aventis, the manufacturer of the clopidogrel preparation Plavix®, for the determination of the antithrombotic effect of the medicament.
The cut-offs for the individual test procedures were determined by preliminary investigations with whole blood and plasma samples of normal donors.
“+” means an antithrombotic effect could be detected. “−” means no antithrombotic effect could be detected. “0” means that the duplicate determination gave contradictory results, i.e. one value above and one value below the cut-off.

[8] = test system: platelet aggregation; settings: Method 4 aggregometry 5 μM ADP; 13 patients on 75 mg clopidogrel daily

SMILES | Number of samples with closure times above cut-off (n = 11) [1] | closure time relative to cut-off (FIG. 2, mean values) ([1]; citrated blood, 11 donors) | platelet aggregation reduced compared with untreated samples (mean) [2] | Number of samples with closure times above cut-off (n = 11) [3] | closure time relative to cut-off (FIG. 2, mean values) ([3]; citrated blood, 11 donors) | Number of samples with closure times above cut-off (n = 10) [4] | closure time relative to cut-off (FIG. 3, mean values) [4] | Sensitivity (share of 13 patients with detected antithrombotic effect) [5] | Sensitivity (share of 13 patients with detected antithrombotic effect) [6] | number of patients in whom the antithrombotic effect could be detected (of 13) [6] | Sensitivity (share of 13 patients with detected antithrombotic effect) [7] | Sensitivity (share of 13 patients with detected antithrombotic effect) [8] | Number of samples with closure times above cut-off (n = 11) ([3]; listed as acetylsalicylic acid) | Number of samples with closure times above cut-off (n = 10) ([4]; listed as acetylsalicylic acid)
CNc1nc(Cl)nc2c1ncn2CC(COC(=O)C(C)(C)C)COC(=O)C(C)(C)C [MRS 2395, 2,2-dimethyl-propionic acid 3-(2-chloro-6-methylaminopurin-9-yl)-2-(2,2-dimethyl-propionyloxymethyl)-propyl ester] | 4 | lie to a greater extent below the upper reference value (cut-off) | 27% | 9 | closure times that lie significantly above the upper reference value (cut-off) | 9 | closure times that lie significantly above the reference value (cut-off) |  |  |  |  |  |  | 
COC(=O)[C@H](c1ccccc1Cl)N1CCc2sccc2C1 [clopidogrel] |  |  |  |  |  |  |  | 69% | 77% | 10 | 46% | 62% |  | 
CNc1ncnc2c1ncn2[C@H]1C[C@H](OP(=O)(O)O)[C@@H](COP(=O)(O)O)O1.N.N [MRS 2179, 2′-deoxy-N6-methyladenosine-3′,5′-bisphosphate, diammonium salt] |  |  |  |  |  | 10 | closure times that lie significantly above the reference value (cut-off) |  |  |  |  |  |  | 
CC(=O)Oc1ccccc1C(=O)O [Acetylsalicylic acid, acetylsalicylic acid] | 8 |  |  | 1 |  | 0 | no prolongation of closure times |  |  |  |  |  | one | none

Reference: patent publication US9759730B2, “Method and device for the determination of platelet function under flow conditions” (SIEMENS HEALTHCARE DIAGNOSTICS PRODUCTS GMBH, priority 2006, dated 2017)
